Values quoted from earlier work as cited in patent publication US11266662B2, “Ganaxolone for use in prophylaxis and treatment of postpartum depression” (Marinus Pharmaceuticals, Inc., priority 2018, dated 2022).

System: patients
Details: 60 μg and 90 μg brexanolone dose regimens, IV infusion; cited from earlier work

CC(=O)[C@H]1CC[C@H]2[C@@H]3CC[C@H]4C[C@H](O)CC[C@]4(C)[C@H]3CC[C@]12C [brexanolone]
Patients with abrupt loss of consciousness, syncope or presyncope: about 4%
